The target in data set [1] is Glycogen synthase kinase-3 beta (Homo sapiens, UniProt P49841). Briefly: Inhibition of recombinant human full length N-terminal GST-tagged GSK-3beta expressed in Sf9 insect cells using prephosphorylated polypeptide as substrate after 30 mins by kinase-Glo reagent based luminescence assay. Background: Kinase-Glo reads ATP consumption through a luciferase reaction.
The target of data set [2] is T1, Acetylcholinesterase (Homo sapiens, UniProt P22303). Briefly: Inhibition of human AChE using acetylthiocholine iodide as substrate incubated for 20 mins followed by substrate addition measured after 2 mins by Ellman's method. In general terms: DTNB colorimetry detects thiols as they appear.
T1 sequence (P22303 whole entry): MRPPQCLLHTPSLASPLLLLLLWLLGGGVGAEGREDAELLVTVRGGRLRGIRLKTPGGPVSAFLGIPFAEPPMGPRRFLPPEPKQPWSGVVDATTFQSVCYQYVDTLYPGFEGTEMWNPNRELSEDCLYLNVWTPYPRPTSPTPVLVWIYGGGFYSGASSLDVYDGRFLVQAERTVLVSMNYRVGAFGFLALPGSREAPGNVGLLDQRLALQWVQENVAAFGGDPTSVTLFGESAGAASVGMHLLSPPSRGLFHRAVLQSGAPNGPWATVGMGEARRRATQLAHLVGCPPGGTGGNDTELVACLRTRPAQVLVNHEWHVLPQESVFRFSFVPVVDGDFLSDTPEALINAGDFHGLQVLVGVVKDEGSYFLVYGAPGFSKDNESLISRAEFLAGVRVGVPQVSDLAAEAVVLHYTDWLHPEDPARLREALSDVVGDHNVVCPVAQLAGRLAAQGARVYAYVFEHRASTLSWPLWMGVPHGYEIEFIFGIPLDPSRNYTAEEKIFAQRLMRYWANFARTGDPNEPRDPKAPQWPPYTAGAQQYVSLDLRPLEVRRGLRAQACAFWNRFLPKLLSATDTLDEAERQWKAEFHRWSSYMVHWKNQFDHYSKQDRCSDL
Data set [3] relates to SH-SY5Y. Briefly: Cytotoxicity against human SH-SY5Y cells assessed as reduction in cell viability after 48 hrs by MTT assay. In kind it is cell-based. For orientation: Formazan colour is commonly taken as a measure of viable cells.
The target in data set [4] is Cholinesterase (Homo sapiens, UniProt P06276). Kind of data set: Inhibition of human BuChE using butyrylthiocholine iodide as substrate incubated for 20 mins followed by substrate addition measured after 2 mins by Ellman's method.
Cholinesterase (Homo sapiens, UniProt P06276), sequence (P06276 whole entry): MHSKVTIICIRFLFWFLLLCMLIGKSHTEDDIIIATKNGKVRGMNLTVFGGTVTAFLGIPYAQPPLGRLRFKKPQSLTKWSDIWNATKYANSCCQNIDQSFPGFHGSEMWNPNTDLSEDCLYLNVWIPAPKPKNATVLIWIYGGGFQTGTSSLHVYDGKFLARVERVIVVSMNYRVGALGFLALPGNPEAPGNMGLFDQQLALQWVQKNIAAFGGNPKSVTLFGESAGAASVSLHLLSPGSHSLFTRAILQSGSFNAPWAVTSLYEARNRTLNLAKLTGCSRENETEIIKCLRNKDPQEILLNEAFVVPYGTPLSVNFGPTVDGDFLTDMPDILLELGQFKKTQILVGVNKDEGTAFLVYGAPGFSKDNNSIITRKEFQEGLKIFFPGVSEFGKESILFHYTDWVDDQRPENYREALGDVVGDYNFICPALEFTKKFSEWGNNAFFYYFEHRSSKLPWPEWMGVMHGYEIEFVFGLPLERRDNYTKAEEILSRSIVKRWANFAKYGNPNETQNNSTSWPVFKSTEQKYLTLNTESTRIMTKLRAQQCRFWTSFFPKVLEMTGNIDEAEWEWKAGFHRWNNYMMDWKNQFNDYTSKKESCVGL
For data set [5], the target named is Cholinesterase (Equus caballus, UniProt P81908). Briefly: Inhibition of horse serum BuChE using butyrylthiocholine iodide as substrate incubated for 5 mins followed by substrate addition measured after 2 mins by Ellman's method.
Cholinesterase (Equus caballus, UniProt P81908), sequence (P81908 whole entry): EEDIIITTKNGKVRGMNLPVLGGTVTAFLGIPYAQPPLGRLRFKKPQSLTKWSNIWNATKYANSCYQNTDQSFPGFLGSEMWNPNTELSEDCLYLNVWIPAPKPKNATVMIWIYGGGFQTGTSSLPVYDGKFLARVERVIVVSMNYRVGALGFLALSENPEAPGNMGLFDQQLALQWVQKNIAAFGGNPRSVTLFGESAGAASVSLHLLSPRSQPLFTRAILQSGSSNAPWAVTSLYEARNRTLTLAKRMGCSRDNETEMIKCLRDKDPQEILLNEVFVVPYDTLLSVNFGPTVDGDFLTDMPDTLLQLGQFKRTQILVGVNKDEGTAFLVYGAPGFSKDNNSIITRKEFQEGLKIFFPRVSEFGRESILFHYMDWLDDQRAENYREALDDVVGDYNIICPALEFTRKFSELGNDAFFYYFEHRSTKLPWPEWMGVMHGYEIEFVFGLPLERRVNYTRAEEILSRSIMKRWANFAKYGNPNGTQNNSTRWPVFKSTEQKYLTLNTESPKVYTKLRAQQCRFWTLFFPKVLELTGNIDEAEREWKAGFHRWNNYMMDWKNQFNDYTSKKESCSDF
Data set [6] concerns Mus musculus. Briefly: Cognition enhancing effect in scopolamine-induced ICR mouse assessed as decrease in distance to target at 15 mg/kg, po administered 30 mins prior to scopolamine injection for 10 consecutive days followed by testing on day 11 post 30 mins scopolamine treatment by Morris water maze test. The format is functional, organism-based.
The species entered for data set [7] is Homo sapiens. Briefly: Selectivity index, ratio of IC50 for human AChE to IC50 for human BuChE.
Data set [8] addresses T1, Acetylcholinesterase. Kind of data set: Mixed/non-competitive inhibition of human AChE using varying levels of acetylthiocholine iodide as substrate at 1 to 20 nM incubated for 20 mins by Lineweaver-Burk plot analysis.
The test system of data set [9] is N2a. Kind of data set: Effect on total tau protein level in mouse N2A cells at 10 to 30 uM after 6 hrs by Western blot analysis. In kind it is cell-based.
The subject of data set [10] is HepG2. Kind of data set: Cytotoxicity against human HepG2 cells assessed as reduction in cell viability after 24 hrs by MTT assay. In kind it is cell-based. To be noted: HepG2, 24 h.
The target in data set [11] is Glycogen synthase kinase-3 beta (Mus musculus) (UniProt Q9WV60). Kind of data set: Inhibition of GSK-3beta in mouse N2A cells assessed as reduction in tau hyperphosphorylation at Ser396 residues at 10 uM after 6 hrs by Western blot analysis. The format is cell-based.
Glycogen synthase kinase-3 beta (Mus musculus), sequence (Q9WV60 whole entry, looked up): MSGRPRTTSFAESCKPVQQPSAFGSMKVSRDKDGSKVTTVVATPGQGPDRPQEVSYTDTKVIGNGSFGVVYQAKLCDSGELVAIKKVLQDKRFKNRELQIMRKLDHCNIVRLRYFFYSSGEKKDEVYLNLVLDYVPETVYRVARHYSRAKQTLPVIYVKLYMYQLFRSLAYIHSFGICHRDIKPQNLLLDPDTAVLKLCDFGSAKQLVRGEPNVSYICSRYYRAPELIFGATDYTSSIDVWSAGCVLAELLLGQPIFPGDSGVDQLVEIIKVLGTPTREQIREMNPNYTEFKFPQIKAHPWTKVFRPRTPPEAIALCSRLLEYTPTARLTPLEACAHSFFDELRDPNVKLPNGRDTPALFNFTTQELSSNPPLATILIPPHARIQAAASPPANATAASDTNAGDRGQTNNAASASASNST

From ChEMBL document CHEMBL4251692, “Dual GSK-3β/AChE Inhibitors as a New Strategy for Multitargeting Anti-Alzheimer's Disease Drug Discovery” (ACS Med Chem Lett, 2018) come the findings set out here.

Activity calls are given as the source filed them. The rule behind the calls is not given here.

As a reminder, the IC50 is the concentration at which inhibition is half-maximal.

Glycogen synthase kinase-3 beta, sequence (P49841 whole entry): as the sequence (Q9WV60 whole entry, looked up) above, with P390T, A392T, T400A, A402T counted along it

`CCOC(=O)c1sc(-c2ccnc(NC(=O)C3CC3)c2)nc1OCCNc1c2c(nc3ccccc13)CCCC2`: the IC50 in data set [1] stood at 0.18 µM; in data set [2], 0.31 µM; in [3], 7.1 µM; in data set [4], 0.61 µM.
For the compound `COc1ccc2nc3c(c(NCCCNC(=O)c4sc(-c5ccnc(NC(=O)C6CC6)c5)nc4OC)c2c1)CCCC3`, the IC50 in [1] is 0.065 µM; in [5], 2.3 µM; in data set [2], 0.038 µM; in data set [3], 2.9 µM.
Consider `COC(=O)c1sc(-c2ccnc(NC(=O)C3CC3)c2)nc1OCCNc1c2c(nc3ccccc13)CCCC2`, for which the IC50 came out at 0.099 µM in [1], 0.13 µM in data set [2], 13 µM in data set [3] and 0.028 µM in data set [4]. For the same compound, in data set [6], the result was Active. In addition, the Ratio IC50 in data set [7] turned out to be 4.6.
As for `COc1ccc2nc3c(c(NCCNC(=O)c4sc(-c5ccnc(NC(=O)C6CC6)c5)nc4OC)c2c1)CCCC3`, the IC50 is 0.083 µM in data set [1], 2.1 µM in data set [5], 0.023 µM in data set [2] and 8.9 µM in data set [3].
Take `O=C(O)c1sc(-c2ccnc(NC(=O)C3CC3)c2)nc1OCCNc1c2c(nc3ccccc13)CCCC2`: the IC50 in [1] amounted to 0.27 µM; in data set [2], 0.58 µM; in data set [3], 21 µM; in data set [4], 0.45 µM.
For `COc1nc(-c2ccnc(NC(=O)C3CC3)c2)sc1C(=O)NCCNc1c2c(nc3cc(Cl)ccc13)CCCC2`, the IC50 in [1] stood at 0.063 µM; in data set [5], 0.41 µM; in data set [2], 0.0021 µM; in data set [3], 2.3 µM.
With `COc1nc(-c2ccnc(NC(=O)C3CC3)c2)sc1C(=O)NCCCCCCNc1c2c(nc3ccccc13)CCCC2`, the IC50 worked out at 0.018 µM in data set [1], 0.022 µM in data set [2], 30 µM in [3] and 0.1 µM in data set [4]. The result in data set [6] was Active.
Take `NC(=O)c1sc(-c2ccnc(NC(=O)C3CC3)c2)nc1OCCNc1c2c(nc3ccccc13)CCCC2`: the IC50 in data set [1] was 0.034 µM; in data set [2], 0.3 µM; in data set [3] it was 19 µM; in data set [4], 0.15 µM.
On the same counts, the results for `COc1nc(-c2ccnc(NC(=O)C3CC3)c2)sc1C(=O)NCCNc1c2c(nc3ccccc13)CCCC2` are 0.068 µM, 0.0063 µM, 6.3 µM and 0.051 µM.
Turning to `COc1nc(-c2ccnc(NC(=O)C3CC3)c2)sc1C(=O)NCCCNc1c2c(nc3ccccc13)CCCC2`, the IC50 stood at 0.066 µM in data set [1]; 35 µM in data set [10]; 0.0064 µM in data set [2]; 18 µM in [3]; 0.26 µM in data set [4]. In data set [6], the result was Active. Also, the inhibition entry in data set [8] and in data set [11] was “Active” throughout. Also, the Activity result in [9] was “Non-Toxic”.
In the case of `COc1nc(-c2ccnc(NC(=O)C3CC3)c2)sc1C(=O)NCCCNc1c2c(nc3cc(Cl)ccc13)CCCC2`, the IC50 in data set [1] came out at 0.098 µM; in data set [5] it was 0.29 µM; in [2], 0.0036 µM; in [3], 3.1 µM.
